The text below walks through data of EP4667458A1 (Kanaph Therapeutics Inc., priority 2023, dated 2024).

A value given as a limit tells only on which side of the number the result lay.

In the assay the target is T1, KRAS^G12C::SOS1 (Homo sapiens, UniProt Q07889).
T1 sequence (Q07889 1-1333): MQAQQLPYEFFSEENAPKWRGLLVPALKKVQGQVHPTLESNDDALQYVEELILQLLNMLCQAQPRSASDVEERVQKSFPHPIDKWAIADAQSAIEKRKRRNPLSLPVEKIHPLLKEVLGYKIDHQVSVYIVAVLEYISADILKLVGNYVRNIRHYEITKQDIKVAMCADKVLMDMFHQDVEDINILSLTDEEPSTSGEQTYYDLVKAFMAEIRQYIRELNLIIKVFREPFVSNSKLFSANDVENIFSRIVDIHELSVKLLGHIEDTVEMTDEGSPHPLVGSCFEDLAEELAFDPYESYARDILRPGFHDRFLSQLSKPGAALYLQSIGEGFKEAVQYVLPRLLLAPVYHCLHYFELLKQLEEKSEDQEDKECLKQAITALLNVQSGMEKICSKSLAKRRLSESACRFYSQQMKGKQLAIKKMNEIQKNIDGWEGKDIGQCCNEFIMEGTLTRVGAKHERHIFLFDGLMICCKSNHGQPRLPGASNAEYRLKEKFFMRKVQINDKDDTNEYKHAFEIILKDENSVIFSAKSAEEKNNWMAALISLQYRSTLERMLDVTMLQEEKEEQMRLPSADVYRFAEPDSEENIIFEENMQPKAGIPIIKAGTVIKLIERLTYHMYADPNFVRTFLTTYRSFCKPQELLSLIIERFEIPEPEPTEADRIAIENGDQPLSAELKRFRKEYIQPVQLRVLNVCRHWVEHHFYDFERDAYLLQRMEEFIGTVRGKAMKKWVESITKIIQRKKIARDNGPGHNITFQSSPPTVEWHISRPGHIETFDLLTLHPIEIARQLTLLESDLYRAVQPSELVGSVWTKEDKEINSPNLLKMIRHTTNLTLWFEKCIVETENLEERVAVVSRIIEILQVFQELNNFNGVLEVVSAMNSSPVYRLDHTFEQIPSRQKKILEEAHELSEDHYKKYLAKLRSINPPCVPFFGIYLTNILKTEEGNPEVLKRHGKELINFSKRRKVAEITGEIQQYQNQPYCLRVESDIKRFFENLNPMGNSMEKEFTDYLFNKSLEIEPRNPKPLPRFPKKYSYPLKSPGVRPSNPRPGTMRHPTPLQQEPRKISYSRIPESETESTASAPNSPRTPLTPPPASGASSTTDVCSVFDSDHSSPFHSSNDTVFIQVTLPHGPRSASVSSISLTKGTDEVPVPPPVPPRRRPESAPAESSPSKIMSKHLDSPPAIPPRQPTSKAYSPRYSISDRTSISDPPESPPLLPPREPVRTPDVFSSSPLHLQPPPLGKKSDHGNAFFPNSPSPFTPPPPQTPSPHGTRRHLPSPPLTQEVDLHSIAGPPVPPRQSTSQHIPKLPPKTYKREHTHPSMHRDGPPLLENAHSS
Put plainly: KRAS G12C::SOS1 protein-protein interaction (PPI) inhibition assay (HTRF binding kit). (In general: In TR-FRET formats the signal depends on donor and acceptor labels being close together.)
Compound `C[C@@H](NC(=O)c1ccc(=O)n(-c2ccccc2F)n1)c1cccc(C(F)(F)F)c1F` [Example 259, 1-(2-fluorophenyl)-N-[(1R)-1-[2-fluoro-3-(trifluoromethyl)phenyl]ethyl]-6-oxo-pyridazine-3-carboxamide] displayed an IC50 of under 1000 nM.
For the compound `C[C@@H](NC(=O)c1ccc(=O)n(-c2ccccc2F)n1)c1cccc(C#N)c1F` [Example 260, N-[(1R)-1-(3-cyano-2-fluoro-phenyl)ethyl]-1-(2-fluorophenyl)-6-oxo-pyridazine-3-carboxamide], the IC50 was under 1000 nM.
Then `C[C@@H](NC(=O)c1ccc(=O)n(-c2ccccc2F)n1)c1cccc(F)c1Cl` [Example 261, N-[(1R)-1-(2-chloro-3-fluoro-phenyl)ethyl]-1-(2-fluorophenyl)-6-oxo-pyridazine-3-carboxamide], with over 10000 nM; and `C[C@H](NC(=O)c1ccc(=O)n(-c2ccccc2F)n1)c1cccc(F)c1Cl` [Example 262, N-[(1S)-1-(2-chloro-3-fluorophenyl)ethyl]-1-(2-fluorophenyl)-6-oxo-pyridazine-3-carboxamide], with 1000 to 10000 nM.
The compound `C[C@@H](NC(=O)c1ccc(=O)n(-c2ccccc2F)c1)c1cc(N)cc(C(F)F)c1` [Example 263, N-[(1R)-1-[3-amino-5-(difluoromethyl)phenyl]ethyl]-1-(2-fluorophenyl)-6-oxo-pyridine-3-carboxamide] displayed a 50% inhibitory concentration (IC50) of under 1000 nM.
As for `C[C@@H](NC(=O)C1=NN(c2ccccc2)C(=O)CC1)c1cc(N)cc(C(F)(F)F)c1` [Example 264, N-[(1R)-1-[3-amino-5-(trifluoromethyl)phenyl]ethyl]-6-oxo-1-phenyl-4,5-dihydropyridazine-3-carboxamide], the IC50 was under 1000 nM.
On to `CNCc1cc2c(cc1-c1ccc([C@@H](C)NC(=O)c3ccc(=O)n(-c4ccccc4F)n3)s1)CC2` [Example 266, 1-(2-fluorophenyl)-N-[(1R)-1-[5-[4-(methylaminomethyl)-3-bicyclo [4.2.0]octa-1,3,5-trienyl]-2-thienyl]ethyl]-6-oxo-pyridazine-3-carboxamide], for which the IC50 was under 1000 nM.
The figure for `CNCc1ccccc1-c1csc([C@@H](C)NC(=O)c2ccc(=O)n(-c3ccccc3F)n2)c1` [Example 267, 1-(2-fluorophenyl)-N-[(1R)-1-[4-[2-(methylaminomethyl)phenyl]-2-thienyl]ethyl]-6-oxo-pyridazine-3-carboxamide] is under 1000 nM; for `CNCc1ccccc1-c1ccc([C@@H](C)NC(=O)c2nn(-c3ccccc3F)c(=O)c3cc[nH]c23)s1` [Example 268, 5-(2-fluorophenyl)-N-[(1R)-1-[5-[2-(methylaminomethyl)phenyl]-2-thienyl]ethyl]-4-oxo-1H-pyrrolo[2,3-d]pyridazine-7-carboxamide] it is under 1000 nM; for `CNCc1ccccc1-c1ccc([C@@H](C)NC(=O)c2nn(-c3ccccc3F)c(=O)c3ccsc23)s1` [Example 269, 5-(2-fluorophenyl)-N-[(1R)-1-[5-[2-(methylaminomethyl)phenyl]-2-thienyl]ethyl]-4-oxo-thieno[2,3-d]pyridazine-7-carboxamide] it is under 1000 nM.
The figure for `CNCc1ccc(Cl)cc1-c1ccc([C@@H](C)NC(=O)c2ccc(=O)n(-c3cccnc3F)n2)s1` [Example 270, N-[(1R)-1-[5-[5-chloro-2-(methylaminomethyl)phenyl]-2-thienyl]ethyl]-1-(2-fluoro-3-pyridyl)-6-oxo-pyridazine-3-carboxamide] is under 1000 nM.
As to `CNCc1ccc(Cl)cc1-c1ccc([C@@H](C)NC(=O)c2ccc(=O)n(-c3cccnc3NC)n2)s1` [Example 271, N-[(1R)-1-[5-[5-chloro-2-(methylaminomethyl)phenyl]-2-thienyl]ethyl]-1-[2-(methylamino)-3-pyridyl]-6-oxo-pyridazine-3-carboxamide], the 50% inhibitory concentration (IC50) is under 1000 nM.
Compound `CNCc1ccc(C)cc1-c1ccc([C@@H](C)NC(=O)c2ccc(=O)n(-c3cccnc3F)c2)s1` [Example 272, 1-(2-fluoro-3-pyridyl)-N-[(1R)-1-[5-[5-methyl-2-(methylaminomethyl)phenyl]-2-thienyl]ethyl]-6-oxo-pyridine-3-carboxamide] registered an IC50 of under 1000 nM.
The figure for `CNCc1cc2c(cc1-c1ccc([C@@H](C)NC(=O)c3ccc(=O)n(-c4ccccc4F)c3)s1)CCC2` [Example 273, 1-(2-fluorophenyl)-N-[(1R)-1-[5-[6-(methylaminomethyl)indan-5-yl]-2-thienyl]ethyl]-6-oxo-pyridine-3-carboxamide] is under 1000 nM.
As to `CNCc1cc2c(cc1-c1ccc([C@@H](C)NC(=O)c3ccc(=O)n(-c4ccccc4F)n3)s1)CCC2` [Example 274, 1-(2-fluorophenyl)-N-[(1R)-1-[5-[6-(methylaminomethyl)indan-5-yl]-2-thienyl]ethyl]-6-oxo-pyridazine-3-carboxamide], the IC50 was under 1000 nM.
In turn, `CNCc1ccccc1-c1ccc([C@@H](C)NC(=O)c2nn(-c3cnn(C)c3)c(=O)c3cc[nH]c23)s1` [Example 275, N-[(1R)-1-[5-[2-(methylaminomethyl)phenyl]-2-thienyl]ethyl]-5-(1-methylpyrazol-4-yl)-4-oxo-1H-pyrrolo[2,3-d]pyridazine-7-carboxamide] had an IC50 of under 1000 nM.
`CNCc1cc2c(cc1-c1ccc([C@@H](C)NC(=O)c3ccc(=O)n(-c4ccccc4F)c3)s1)CC2` [Example 276, 1-(2-fluorophenyl)-N-[(1R)-1-[5-[4-(methylaminomethyl)-3-bicyclo[4.2.0]octa-1,3,5-trienyl]-2-thienyl]ethyl]-6-oxo-pyridine-3-carboxamide]: the half-inhibitory concentration (IC50) is under 1000 nM.
The figure for `CNCc1ccc(Cl)cc1-c1ccc([C@@H](C)NC(=O)c2ccc(=O)n(-c3cccnc3F)c2)s1` [Example 277, N-[(1R)-1-[5-[5-chloro-2-(methylaminomethyl)phenyl]-2-thienyl]ethyl]-1-(2-fluoro-3-pyridyl)-6-oxo-pyridine-3-carboxamide] is under 1000 nM; for `CNCc1ccccc1-c1ccc([C@@H](C)NC(=O)c2ccc(=O)n(-c3cnn(C)c3)n2)s1` [Example 278, N-[(1R)-1-[5-[2-(methylaminomethyl)phenyl]-2-thienyl]ethyl]-1-(1-methylpyrazol-4-yl)-6-oxo-pyridazine-3-carboxamide] it is under 1000 nM; for `CNCc1cc(F)ccc1-c1ccc([C@@H](C)NC(=O)c2ccc(=O)n(-c3ccccc3F)n2)s1` [Example 279, N-[(1R)-1-[5-[4-fluoro-2-(methylaminomethyl)phenyl]-2-thienyl]ethyl]-1-(2-fluorophenyl)-6-oxo-pyridazine-3-carboxamide] it is under 1000 nM.
`CNCc1cc(F)ccc1-c1ccc([C@@H](C)NC(=O)c2ccc(=O)n(-c3ccccc3F)c2)s1` [Example 280, N-[(1R)-1-[5-[4-fluoro-2-(methylaminomethyl)phenyl]-2-thienyl]ethyl]-1-(2-fluorophenyl)-6-oxo-pyridine-3-carboxamide]: the half-maximal inhibitory concentration (IC50) is under 1000 nM.
`CNCc1cc(Cl)ccc1-c1ccc([C@@H](C)NC(=O)c2ccc(=O)n(-c3ccccc3F)n2)s1` [Example 281, N-[(1R)-1-[5-[4-chloro-2-(methylaminomethyl)phenyl]-2-thienyl]ethyl]-1-(2-fluorophenyl)-6-oxo-pyridazine-3-carboxamide]: the half-inhibitory concentration (IC50) is under 1000 nM.
Then `CNCc1cc(Cl)ccc1-c1ccc([C@@H](C)NC(=O)c2ccc(=O)n(-c3ccccc3F)c2)s1` [Example 282, N-[(1R)-1-[5-[4-chloro-2-(methylaminomethyl)phenyl]-2-thienyl]ethyl]-1-(2-fluorophenyl)-6-oxo-pyridine-3-carboxamide], with under 1000 nM; and `CNCc1ccc(Cl)cc1-c1ccc([C@@H](C)NC(=O)c2ccc(=O)n(-c3ccccc3F)c2)s1` [Example 283, N-[(1R)-1-[5-[5-chloro-2-(methylaminomethyl)phenyl]-2-thienyl]ethyl]-1-(2-fluorophenyl)-6-oxo-pyridine-3-carboxamide], with under 1000 nM.
Then `CNCc1ccc(Cl)cc1-c1ccc([C@@H](C)NC(=O)c2ccc(=O)n(-c3cccnc3)n2)s1` [Example 285, N-[(1R)-1-[5-[5-chloro-2-(methylaminomethyl)phenyl]-2-thienyl]ethyl]-6-oxo-1-(3-pyridyl)pyridazine-3-carboxamide], with under 1000 nM.

One may read the IC50 as the midpoint of a concentration-inhibition curve. Lower therefore signals greater potency.
